Data as given in paper PMC7881117 (Nature Communications, 2021).

Biological target: T1, p53 (Homo sapiens, UniProt P04637)
T1 construct: gene TP53
Assay: SPR with immobilized p53; also STD NMR, […]-13C NCO NMR titration, SAXS and AUC with NTD
Format: binding

T1 sequence (P04637 whole entry): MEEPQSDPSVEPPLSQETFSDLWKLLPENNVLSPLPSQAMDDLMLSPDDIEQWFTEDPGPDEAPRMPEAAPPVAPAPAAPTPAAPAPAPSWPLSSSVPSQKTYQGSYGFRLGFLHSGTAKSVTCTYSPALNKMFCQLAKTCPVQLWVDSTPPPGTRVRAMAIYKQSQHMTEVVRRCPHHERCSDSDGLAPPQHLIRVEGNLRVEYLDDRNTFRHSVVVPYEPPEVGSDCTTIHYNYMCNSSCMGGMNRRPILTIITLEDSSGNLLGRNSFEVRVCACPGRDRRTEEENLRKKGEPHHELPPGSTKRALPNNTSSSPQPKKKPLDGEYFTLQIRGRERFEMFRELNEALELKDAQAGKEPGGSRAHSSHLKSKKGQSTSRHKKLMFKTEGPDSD

O=C(O[C@@H]1Cc2c(O)cc(O)cc2O[C@@H]1c1cc(O)c(O)c(O)c1)c1cc(O)c(O)c(O)c1 [EGCG, Epigallocatechin gallate]
Kd: 1600 ± 1400 nM
